# Results as given in ChEMBL document CHEMBL5625253, “Discovery of novel benzofuran-based derivatives as acetylcholinesterase inhibitors for the treatment of Alzheimer's disease: Design, synthesis, biological evaluation, molecular docking and 3D-QSAR investigation” (Eur J Med Chem, 2023).
# Activity calls are given as the source filed them. The rule behind the calls is not given here.
# Key:
# Acetylcholinesterase = Acetylcholinesterase (Homo sapiens, UniProt P22303); experiment: Inhibition of AChE (unknown origin) using […] as substrate incubated for 15 to 20 mins by DTNB reagent based Ellman's method
# Sequence of Acetylcholinesterase (P22303 whole entry): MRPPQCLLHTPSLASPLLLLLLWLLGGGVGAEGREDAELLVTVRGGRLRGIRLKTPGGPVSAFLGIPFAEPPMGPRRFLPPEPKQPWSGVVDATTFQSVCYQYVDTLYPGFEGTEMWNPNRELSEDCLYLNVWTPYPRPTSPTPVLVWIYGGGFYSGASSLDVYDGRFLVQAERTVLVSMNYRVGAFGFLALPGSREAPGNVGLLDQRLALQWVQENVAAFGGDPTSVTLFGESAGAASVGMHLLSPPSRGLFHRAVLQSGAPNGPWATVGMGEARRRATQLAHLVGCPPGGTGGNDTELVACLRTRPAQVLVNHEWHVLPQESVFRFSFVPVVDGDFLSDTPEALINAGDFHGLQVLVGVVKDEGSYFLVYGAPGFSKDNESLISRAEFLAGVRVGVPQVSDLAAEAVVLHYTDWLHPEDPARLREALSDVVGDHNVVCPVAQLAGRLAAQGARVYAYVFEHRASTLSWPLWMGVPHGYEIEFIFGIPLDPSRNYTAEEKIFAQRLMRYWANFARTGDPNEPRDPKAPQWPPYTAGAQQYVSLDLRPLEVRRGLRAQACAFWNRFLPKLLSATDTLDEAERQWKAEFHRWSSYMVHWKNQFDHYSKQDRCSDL
# [1] = Antioxidant activity assessed as DPPH radical scavenging activity at 0.01 ug/ml incubated for 1 hr under dark condition by absorbance based assay relative to control; format: functional; conditions: dose 0.01 µg/ml
# [2] = Antioxidant activity assessed as DPPH radical scavenging activity at 0.05 ug/ml incubated for 1 hr under dark condition by absorbance based assay relative to control; format: functional; conditions: dose 0.05 µg/ml
# Rattus norvegicus [3] = experiment: Antialzheimer activity against AlCl3-induced Alzheimer's disease Wistar albino rat model assessed as change in MDA level in brain at 10 mg/kg,po for 6 weeks relative to control; format: functional
# Rattus norvegicus [4] = experiment: Antialzheimer activity against AlCl3-induced Alzheimer's disease Wistar albino rat model assessed as improvement in cognitive ability at 10 mg/kg,po for 6 weeks by T-maze test; format: functional
# Rattus norvegicus [5] = experiment: Antialzheimer activity against AlCl3-induced Alzheimer's disease Wistar albino rat model assessed as improvement in MDA level in brain at 10 mg/kg,po for 6 weeks relative to control; format: functional
# Rattus norvegicus [6] = experiment: Antialzheimer activity against AlCl3-induced Alzheimer's disease Wistar albino rat model assessed as time taken to reach the food at 10 mg/kg,po for 6 weeks by T-maze test; format: functional
# Rattus norvegicus [7] = experiment: Antialzheimer activity against AlCl3-induced Alzheimer's disease Wistar albino rat model assessed as MDA level in brain at 10 mg/kg,po for 6 weeks; format: functional
# Rattus norvegicus [8] = experiment: Antialzheimer activity against AlCl3-induced Alzheimer's disease Wistar albino rat model assessed as degeneration of pyramidal neurons in hippocampus at 10 mg/kg,po for 6 weeks by hematoxylin and eosin staining based microscopic analysis; format: functional
# Rattus norvegicus [9] = experiment: Antialzheimer activity against AlCl3-induced Alzheimer's disease Wistar albino rat model assessed as gliosis at 10 mg/kg,po for 6 weeks by hematoxylin and eosin staining based microscopic analysis; format: functional
# Rattus norvegicus [10] = experiment: Antialzheimer activity against AlCl3-induced Alzheimer's disease Wistar albino rat model assessed as change in GSH level in brain at 10 mg/kg,po for 6 weeks relative to control; format: functional
# Rattus norvegicus [11] = experiment: Antialzheimer activity against AlCl3-induced Alzheimer's disease Wistar albino rat model assessed as GSH level in brain at 10 mg/kg,po for 6 weeks; format: functional
# Rattus norvegicus [12] = experiment: Antialzheimer activity against AlCl3-induced Alzheimer's disease Wistar albino rat model assessed as improvement in GSH level in brain at 10 mg/kg,po for 6 weeks relative to control; format: functional
# [13] = Toxicity in Wistar rat assessed as ALT level in liver at 10 mg/kg,po (reference value: 27 +/- 2 U/L); format: organism-based; conditions: in vivo
# [14] = Toxicity in Wistar rat assessed as mean corpuscular volume in blood at 10 mg/kg,po (reference value: 59 +/- 5 fL); format: organism-based; conditions: in vivo
# [15] = Toxicity in Wistar rat assessed as glucose level in liver at 10 mg/kg,po (reference value: 105 +/- 8.44 mg/dl); format: organism-based; conditions: in vivo
# [16] = Toxicity in Wistar rat assessed as mean platelet volume in blood at 10 mg/kg,po (reference value: 7.3 +/- 0.12 fL); format: organism-based; conditions: in vivo
# [17] = Toxicity in Wistar rat assessed as Kupffer cell proliferation in liver at 10 mg/kg,po by hematoxylin and eosin staining based microscopic analysis; format: organism-based; conditions: in vivo
# [18] = Toxicity in Wistar rat assessed as hemoglobin level in blood at 10 mg/kg,po (reference value: 14.5 +/- 1 g/dl); format: organism-based; conditions: in vivo
# [19] = Toxicity in Wistar rat assessed as creatinine level in liver at 10 mg/kg,po (reference value: 0.68 +/- 0.03 mg/dl); format: organism-based; conditions: in vivo
# [20] = Toxicity in Wistar rat assessed as histopathological change in kidney at 10 mg/kg,po by hematoxylin and eosin staining based microscopic analysis; format: organism-based; conditions: in vivo
# [21] = Acute toxicity in Wistar rat assessed as mortality at 100 mg/kg,po observed after 24 hrs; format: organism-based; conditions: in vivo
# [22] = Toxicity in Wistar rat assessed as histopathological change in heart at 10 mg/kg,po by hematoxylin and eosin staining based microscopic analysis; format: organism-based; conditions: in vivo
# [23] = Toxicity in Wistar rat assessed as ALP level in liver at 10 mg/kg,po (reference value: 140 +/- 6 U/L); format: organism-based; conditions: in vivo
# [24] = Toxicity in Wistar rat assessed as AST level in liver at 10 mg/kg,po (reference value: 67 +/- 5.1 U/L); format: organism-based; conditions: in vivo
# [25] = Acute toxicity in Wistar rat assessed as mortality at 50 mg/kg,po observed after 24 hrs; format: organism-based; conditions: in vivo
# [26] = Toxicity in Wistar rat assessed as […] cell volume in blood at 10 mg/kg,po (reference value: 43 +/- 3.1 %); format: organism-based; conditions: in vivo
# [27] = Toxicity in Wistar rat assessed as RBC level in blood at 10 mg/kg,po; format: organism-based, Erythrocyte; conditions: in vivo
# Rattus norvegicus [28] = experiment: Antialzheimer activity against AlCl3-induced Alzheimer's disease Wistar albino rat model assessed as decrease in cellular density in hippocampal region of brain at 10 mg/kg,po for 6 weeks by hematoxylin and eosin staining based microscopic analysis; format: functional, organism-based
# [29] = Acute toxicity in Wistar rat assessed as mortality at 50 mg/kg,po observed after 1 month; format: organism-based; conditions: in vivo, 730 h, time 1 months
# [30] = Toxicity in Wistar rat assessed as albumin level in liver at 10 mg/kg,po (reference value: 3.28 +/- 0.43 mg/dl); format: organism-based; conditions: in vivo
# [31] = Acute toxicity in Wistar rat assessed as mortality at 10 mg/kg,po administrated for 1 month; format: organism-based; conditions: in vivo, 730 h, time 1 months
# [32] = Toxicity in Wistar rat assessed as red blood cell distribution width in blood at 10 mg/kg,po (reference value: 17.2 +/- 0.22 %); format: organism-based; conditions: in vivo
# [33] = Toxicity in Wistar rat assessed as mean corpuscular hemoglobin in blood at 10 mg/kg,po (reference value: 19 +/- 1.77 pg); format: organism-based; conditions: in vivo
# [34] = Toxicity in Wistar rat assessed as urea level in liver at 10 mg/kg,po (reference value: 33.6 +/- 2.65 mg/dl); format: organism-based; conditions: in vivo
# [35] = Acute toxicity in Wistar rat assessed as loose bowels at 10 mg/kg,po administrated for 1 month; format: organism-based; conditions: in vivo, 730 h, time 1 months
# [36] = Toxicity in Wistar rat assessed as bilirubin level in liver at 10 mg/kg,po (reference value: 0.6 +/- 0.08 mg/dl); format: organism-based; conditions: in vivo
# [37] = Toxicity in Wistar rat assessed as haematocrit level in blood at 10 mg/kg,po (reference value: 38.16 +/- 2.44 %); format: organism-based; conditions: in vivo
# [38] = Acute toxicity in Wistar rat assessed as mortality at 100 mg/kg,po observed after 1 month; format: organism-based; conditions: in vivo, 730 h, time 1 months
# [39] = Toxicity in Wistar rat assessed as histopathological change in brain at 10 mg/kg,po by hematoxylin and eosin staining based microscopic analysis; format: organism-based; conditions: in vivo
# [40] = Toxicity in Wistar rat assessed as mean corpuscular hemoglobin concentration in blood at 10 mg/kg,po (reference value: 33.8 +/- 2.1 g/dl); format: organism-based; conditions: in vivo
smiles,measurement,setting,value
N=C(N)NS(=O)(=O)c1ccc(N/C=C/C(=O)c2cc3ccccc3o2)cc1,IC50,Acetylcholinesterase,0.908 µM
same,Activity,[1],25%
same,Activity,[2],35%
COc1cc2c(cc1OC)C(=O)C(CC1CCN(Cc3ccccc3)CC1)C2 (configuration not stated) [DONEPEZIL],Activity,Rattus norvegicus [3],67.86%
same,Activity,Rattus norvegicus [4],112.14%
same,Activity,Rattus norvegicus [5],278.43%
same,Time,Rattus norvegicus [6],26 s
same,Activity,[1],20.4%
same,Activity,Rattus norvegicus [7],47.17 nmol
same,Activity,Rattus norvegicus [8],<10%
same,Activity,Rattus norvegicus [9],<10%
same,Activity,Rattus norvegicus [10],18.05%
same,Activity,Rattus norvegicus [11],17.62 mg
same,Activity,[2],30.2%
same,Activity,Rattus norvegicus [12],33.02%
O=C(O)c1cccc(N/C=C/C(=O)c2cc3ccccc3o2)c1,IC50,Acetylcholinesterase,3.77 µM
same,Activity,[1],22.5%
same,Activity,[2],65%
O=C(/C=C/Nc1cccc(Br)c1)c1cc2ccccc2o1,IC50,Acetylcholinesterase,0.313 µM
same,Activity,[1],9.29%
same,Activity,[2],17.9%
Cc1cc(NS(=O)(=O)c2ccc(N/C=C/C(=O)c3cc4ccccc4o3)cc2)no1,IC50,Acetylcholinesterase,0.283 µM
same,Activity,[1],71.7%
same,Activity,[2],65.2%
O=C(/C=C/Nc1ccc(S(=O)(=O)Nc2ncccn2)cc1)c1cc2ccccc2o1,IC50,Acetylcholinesterase,0.357 µM
same,Activity,[1],5%
same,Activity,[2],37.5%
O=C(/C=C/Nc1ccc(Br)cc1)c1cc2ccccc2o1,IC50,Acetylcholinesterase,1.1 µM
same,Activity,[1],22.2%
same,Activity,[2],27%
Cc1cccc(N/C=C/C(=O)c2cc3ccccc3o2)c1,IC50,Acetylcholinesterase,0.617 µM
same,Activity,[1],12.1%
same,Activity,[2],14.3%
O=C(/C=C/Nc1ccc(Cl)cc1)c1cc2ccccc2o1,IC50,Acetylcholinesterase,2.14 µM
same,Activity,[1],28.2%
same,Activity,[2],65.3%
O=C(/C=C/Nc1ccc(F)cc1)c1cc2ccccc2o1,IC50,Acetylcholinesterase,0.487 µM
same,Activity,[1],73.9%
same,Activity,[2],76.1%
NS(=O)(=O)c1ccc(N/C=C/C(=O)c2cc3ccccc3o2)cc1,IC50,Acetylcholinesterase,0.882 µM
same,Activity,[1],18.4%
same,Activity,[2],13%
O=C(/C=C/Nc1cccc([N+](=O)[O-])c1)c1cc2ccccc2o1,IC50,Acetylcholinesterase,0.736 µM
same,Activity,[1],76.1%
same,Activity,[2],82.6%
O=C(/C=C/Nc1ccccc1C(=O)O)c1cc2ccccc2o1,IC50,Acetylcholinesterase,2.07 µM
same,Activity,[1],23.5%
same,Activity,[2],65%
O=C1O[C@H]([C@@H](O)CO)C(O)=C1O,Activity,[1],81%
same,Activity,[2],89%
CN(C)/C=C/C(=O)c1cc2ccccc2o1,IC50,Acetylcholinesterase,2.69 µM
same,Activity,[1],11.4%
same,Activity,[2],56.4%
CC(=O)c1cccc(N/C=C/C(=O)c2cc3ccccc3o2)c1,Activity,[13],29 U/L
same,Activity,[14],56 fL
same,Activity,[15],115 mg/dL
same,Activity,Rattus norvegicus [3],103.35%
same,Activity,[16],6.9 fL
same,Activity,Rattus norvegicus [4],107.04%
same,Activity,[17],Non-Toxic
same,Activity,[18],14.8 g/dL
same,IC50,Acetylcholinesterase,0.19 µM
same,Activity,Rattus norvegicus [5],242.95%
same,Activity,[19],0.72 mg/dL
same,Time,Rattus norvegicus [6],27 s
same,Activity,[20],Non-Toxic
same,mortality at 24 h,[21],25%
same,Activity,[22],Non-Toxic
same,Activity,[23],136 U/L
same,Activity,[24],68 U/L
same,Activity,[25],Non-Toxic
same,Activity,[26],42.16%
same,Activity,[27],6.29 10^6/µL
same,Activity,Rattus norvegicus [28],Active
same,Activity,[29],Non-Toxic
same,Activity,[1],63.1%
same,Activity,[30],3.3 mg/dL
same,Activity,Rattus norvegicus [7],57.14 nmol
same,Activity,Rattus norvegicus [8],<10%
same,Activity,Rattus norvegicus [9],<10%
same,Activity,[31],Non-Toxic
same,Activity,[32],16.6%
same,Activity,[33],18.6 pg
same,Activity,Rattus norvegicus [10],24.09%
same,Activity,[34],32 mg/dL
same,Activity,[35],Non-Toxic
same,Activity,[36],0.67 mg/dL
same,Activity,[37],39.4%
same,Activity,Rattus norvegicus [11],16.32 mg
same,Activity,[38],Non-Toxic
same,Activity,[39],Non-Toxic
same,Activity,[40],31 g/dL
same,Activity,[2],67.6%
same,Activity,Rattus norvegicus [12],26.98%
CCOC(=O)c1ccc(N/C=C/C(=O)c2cc3ccccc3o2)cc1,IC50,Acetylcholinesterase,2.13 µM
same,Activity,[1],21.4%
same,Activity,[2],28.6%
Cc1ccc(N/C=C/C(=O)c2cc3ccccc3o2)cc1,IC50,Acetylcholinesterase,0.397 µM
same,Activity,[1],21.3%
same,Activity,[2],40%
O=C(/C=C/Nc1ccc(S(=O)(=O)Nc2ccccn2)cc1)c1cc2ccccc2o1,IC50,Acetylcholinesterase,1.07 µM
same,Activity,[1],2.2%
same,Activity,[2],76.1%
O=C(O)c1ccc(N/C=C/C(=O)c2cc3ccccc3o2)cc1,IC50,Acetylcholinesterase,0.794 µM
same,Activity,[1],5.71%
same,Activity,[2],35%
O=C(/C=C/Nc1ccccc1O)c1cc2ccccc2o1,IC50,Acetylcholinesterase,0.308 µM
same,Activity,[1],65.5%
same,Activity,[2],90%
CC(=O)c1ccc(N/C=C/C(=O)c2cc3ccccc3o2)cc1,IC50,Acetylcholinesterase,5.91 µM
same,Activity,[1],10%
same,Activity,[2],27%
